The values below are quoted from earlier work in patent US9610295B2, “Method for treating erectile dysfunction” (priority 2010, dated 2017).

In series [1] the target is phosphodiesterase type 5 (PDE5) (Homo sapiens, UniProt O76074). The note with it: PDE5 vs PDE6.
The conditions of series [2]: oral administration, Viagra formulation.
For series [3] the following is noted: in vivo.

Each structure is given as a SMILES string.

For `CCCc1nn(C)c2c(=O)[nH]c(-c3cc(S(=O)(=O)N4CCN(C)CC4)ccc3OCC)nc12` [sildenafil, 1-[[3-(6,7-dihydro-1-methyl-7-oxo-3-propyl-1H-pyrazolo[4,3-d]pyrimidin-5-yl)-4-ethoxyphenyl]sulfonyl]-4-methyl piperazine], in series [1], the “potency for PDE5 compared to PDE6” value is recorded as “about 10 fold”. For the same molecule, the absolute bioavailability entry in series [2] is “about 40%”.

`CN1CC(=O)N2[C@H](c3ccc4c(c3)OCO4)c3[nH]c4ccccc4c3C[C@@H]2C1=O` [tadalafil, (6R-trans)-6-(1,3-benzodioxol-5-yl)-2,3,6,7,12,12a-hexahydro-2-methylpyrazino[1,2:1,6]-pyrido[3,4-6]indole-1,4-dione]: the half-life result in series [3] is given as “about 17.5 hours”.
